Literature values in patent US20240358668A1, “METHODS AND CO[…] AM[…] CARD[…] USING (R)-2-AMINO-3-PH[…]” (AXSOME THERAPEUTICS, INC., priority 2021, published 2024).

Settings: prescribing information; or potentially higher; cited from earlier work

COC(=O)[C@H](c1ccccc1)[C@H]1CCCCN1 [Focalin, dexmethylphenidate]
increase in blood pressure: 2-4 mm Hg
